{"source": "patent US20140148498A1", "about": "“METHODS AND COMPOSITIONS FOR THE TREATMENT OF MARFAN SYNDROME AND ASSOCIATED DISORDERS” (THE JOHNS HOPKINS UNIVERSITY, priority 2011, published 2014)", "key": {"[1]": {"system": "Fbn1^C1039G/+ mice", "assay": "Aortic root growth by echocardiography, 7 months of treatment (Examples 3-5)", "assay_type": "in vivo", "details": "for Final absolute aortic root diameter: 7 months of treatment, mean +/- 2 SEM", "description": "A head-to-head comparison of ACEi versus ARBs was performed. Fbn1^C1039G/+ mice and WT littermates were treated with hemodynamically equivalent doses (FIG. 8) of either the ACEi enalapril (10 to 15 mg/kg of body weight per day) or the ARB losartan (40 to 60 mg/kg per day) (R. D. Patten et al., Clin. Sci 104, 109 (2003)), beginning at 8 weeks of age, and were assessed with serial echocardiograms. […] It is noteworthy that losartan reduced aortic root growth in Fbn1^C1039G/+ mice, but had no effect in WT littermates (P=0.27). […] Whether AT2 signaling is needed to achieve losartan's full therapeutic benefit was assessed. AT2KO:Fbn1^C1039G/+ mice were treated with losartan from 8 weeks of age and followed by serial echocardiography until they were killed at 9 months of age (FIG. 2C).\n(§1) All mice were cared for under strict compliance with the Animal Care and Use Committee of the Johns Hopkins University School of Medicine. The Fbn1^C1039G/+ and AT2KO lines were maintained n a pure C57BL/6 background (backcrossed for greater than 9 generations), allowing for valid comparisons. In order to further accommodate the potential for temporal- or background-specified variation, all comparisons were made between contemporary littermates when possible. The AT21C0 mice were obtained as a generous gift from Dr. Inagami (T. Ichiki et al., Nature 377, 748 (1995)). The Agtr2 gene resides on the X chromosome and therefore we used either male mice carrying the mutated allele (who are hemizygous) or homozygous females, both of which have been previously shown to be functionally null for the AT2 receptor (T. Ichiki et al., Nature 377, 748 (1995)). Mice were sacrificed with an inhalation overdose of halothane (Sigma-Aldrich, St. Louis). Mice underwent immediate laparotomy, descending abdominal aortic transection, and PBS (pH 7.4) was infused through the right and left ventricles to flush out the blood. Mice that were analyzed for Western Blot analysis had their proximal ascending aortas (root to right brachiocephalic trunk) immediately dissected out, flash frozen in liquid nitrogen and stored at −80d until further processing. Mice that were analyzed for aortic histology had latex injected under low pressure into the left ventricular apex until it was visible in the descending abdominal aorta. Mice that were analyzed for lung histology had their trachea intubated with a 20-gauge blunted needle, and 0.5% agar was infused under a low and constant pressure to gradually inflate the lungs. The trachea was then tied-off using vicryl and the needle was removed. Mice were fixed for 24 hours in 10% buffered formalin, after which the heart, aorta and lungs were removed and stored in 70% ethanol.\n(§2) Mice were started on medication at 8 weeks of age and continued for 7 months. Losartan was dissolved in drinking water and filtered to reach a concentration of 0.6 g/L, giving an estimated daily dose of 40-60 mg/kg/day. Enalapril was dissolved in drinking water and filtered to reach a final concentration of 0.15 g/L, giving an estimated daily dose of 10-15 mg/kg/day. […] Spironolactone was dissolved in drinking water and filtered to give an estimated dose of 20 mg/kg/day, a dose previously shown to have in-vivo phenotypic benefit in cardiovascular disease states (S. Sakurabayashi-Kitade et al., Atherosclerosis 206, 54 (2009)). Placebo-treated animals received regular drinking water. Blood pressures were analyzed by taking 20 tail cuff blood pressures per day over 5 days in each mouse to habituate the mice to the tail cuff pressure system, and the blood pressures obtained on the last day were averaged. At least 4 mice for each treatment group were analyzed.\nNair hair removal cream was used on all mice the day prior to echocardiograms. All echocardiograms were performed on awake, unsedated mice using the Visualsonics Vevo 660 V1.3.6 imaging system and a 30 MHz transducer. Mice were imaged at baseline, 1 month after treatment and then every two months until the time of sacrifice. […]"}, "[2]": {"system": "JNK1", "assay": "Western blot of proximal ascending aorta: JNK1 activation (Examples 4-5)", "assay_type": "in vivo, mice", "excerpt": "as §1, with “The trachea was then tied-off using vicryl and the needle was removed. Mice were fixed for 24 hours in 10% buffered formalin, after which the heart, aorta and lungs were removed and stored in 70% ethanol.” left out\n(§3) Mouse aortic root and ascending aortas (aortic root excluding the aortic valve to origin of right brachiocephalic trunk) were harvested, snap-frozen in liquid nitrogen and stored at −80° C. until processed. […] Equal protein loading of samples was determined by a protein assay (BioRad, CA), and confirmed by probing with antibodies against β-Actin or GAPDH (Sigma, Mo.). […]"}, "[3]": {"system": "ERK1/2", "assay": "Western blot of aortic root and proximal ascending aorta: ERK1/2 activation (Examples 4-5)", "assay_type": "in vivo, mice", "excerpt": "as §1, with “The trachea was then tied-off using vicryl and the needle was removed. Mice were fixed for 24 hours in 10% buffered formalin, after which the heart, aorta and lungs were removed and stored in 70% ethanol.” left out\nas §3"}, "[4]": {"system": "Smad2", "assay": "Western blot of aortic root and proximal ascending aorta: Smad2 activation (Examples 4-5)", "assay_type": "in vivo, mice", "excerpt": "as §1\nMouse aortic root and ascending aortas (aortic root excluding the aortic valve to origin of right brachiocephalic trunk) were harvested, snap-frozen in liquid nitrogen and stored at −80° C. until processed. Protein was extracted using the reagents and protocol from a Total Protein Extraction Kit containing protease inhibitor and Protein Phosphatase Inhibitor Cocktail (Millipore, MA). Aortas were homogenized using a pellet pestle motor (Kimble-Kontes, NJ) as per the extraction kit protocol. […] Equal protein loading of samples was determined by a protein assay (BioRad, CA), and confirmed by probing with antibodies against β-Actin or GAPDH (Sigma, Mo.). […] Blots were then washed in PBS-T, developed using SuperSignalWest HRP substrate (Pierce Scientific, IL), exposed to BioMax Scientific Imaging Film (Sigma, Mo.) and quantified using Imaged analysis software (NIH, MD)."}, "[5]": {"system": "Fbn1^C1039G/+ mice", "assay": "Systolic blood pressure by tail cuff", "assay_type": "in vivo", "details": "compared to placebo-treated animals, FIG. 8", "description": "as §2"}, "[6]": {"details": "treated AT2KO:Fbn1^C1039G/+ versus treated Fbn1^C1039G/+ mice, FIG. 14"}}, "note": "“Also recorded” adds a separate entry of the source.", "data": [{"smiles": "CCCCc1nc(Cl)c(CO)n1Cc1ccc(-c2ccccc2-c2nn[nH]n2)cc1", "note": "[losartan]", "values": [{"measurement": "Final absolute aortic root diameter", "setting": "[1]; FIG. 2B", "value": "1.96+/−0.09 mm"}, {"measurement": "Final absolute aortic root diameter", "setting": "[1]; FIG. 2C", "value": "1.96+/−0.09 mm"}, {"measurement": "Aortic root growth over 7 months of treatment", "setting": "[1]; versus placebo, drug in drinking water from 8 weeks of age", "value": "significant regression in growth; also recorded: regression in aortic size"}, {"measurement": "JNK1 activation", "setting": "[2]; Fbn1^C1039G/+ mice, FIG. 13", "value": "small reduction in JNK1 activation; also recorded: modest reduction in JNK1 activation"}, {"measurement": "JNK1 activation", "setting": "[2]; [6]", "value": "no significant change; also recorded: no significant difference"}, {"measurement": "ERK1/2 activation", "setting": "[3]; AT2KO:Fbn1^C1039G/+ mice, FIG. 10C and 14", "value": "ability to inhibit ERK1/2 activation is lost; also recorded: reduced ability to lower ERK1/2 activation; also recorded: loses its ability to decrease ERK1/2 activation"}, {"measurement": "ERK1/2 activation", "setting": "[3]; Fbn1^C1039G/+ mice, FIG. 10B", "value": "reduced it to WT levels; also recorded: reduced ERK1/2 activation to levels indistinguishable from WT littermates"}, {"measurement": "Smad2 activation", "setting": "[4]; Fbn1^C1039G/+ mice, FIG. 10B", "value": "significantly decreased Smad2 activation"}, {"measurement": "Smad2 activation", "setting": "[4]; [6]", "value": "no significant change; also recorded: no significant difference"}, {"measurement": "Systolic blood pressure", "setting": "[5]", "value": "equal reduction in systolic blood pressure"}]}]}
